Data taken from ChEMBL document CHEMBL1133673, “Crystal structure of FMN-dependent nitroreductase from Escherichia coli B: a prodrug-activating enzyme” (J Med Chem, 2000).

What was measured:
Escherichia coli B = assay: Catalytic constant determined to activate by FMN-dependent nitroreductase enzyme from Escherichia coli B (NTR)
[1] = target: NAD(P)H dehydrogenase [quinone] 1 (Homo sapiens) (UniProt P15559); assay: Catalytic constant determined to activate by DT diaphorase in human cell lines
Chain of NAD(P)H dehydrogenase [quinone] 1 (Homo sapiens) (P15559 whole entry): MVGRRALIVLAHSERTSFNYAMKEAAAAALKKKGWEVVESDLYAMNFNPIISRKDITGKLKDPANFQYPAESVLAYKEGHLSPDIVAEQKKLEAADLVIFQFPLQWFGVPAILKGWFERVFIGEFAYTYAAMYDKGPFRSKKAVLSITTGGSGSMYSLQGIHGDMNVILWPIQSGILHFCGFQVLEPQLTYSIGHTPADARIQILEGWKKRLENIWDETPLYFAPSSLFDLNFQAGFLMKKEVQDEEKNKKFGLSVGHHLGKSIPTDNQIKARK

NC(=O)c1cc(N(CCCl)CCCl)c([N+](=O)[O-])cc1[N+](=O)[O-] showed a k cat (Escherichia coli B) of 26.3 s⁻¹.
In the case of NC(=O)c1cc(N2CC2)c([N+](=O)[O-])cc1[N+](=O)[O-], the k cat [1] is reported as 0.0107 s⁻¹ and the k cat (Escherichia coli B) is reported as 6 s⁻¹.
